Experimental data as given in patent US20210093679A1, “[…] MICROBES AND USES THEREOF” (priority 2018, published 2021).

System: female Balb/cJ mice
Experiment: Mouse model of xenobiotic metabolism (irinotecan-induced diarrhea)
Settings: irinotecan 50 mg/kg IP once daily for 10 days
Procedure: On day one and everyday thereafter for 10 days, female Balb/cJ mice (The Jackson Laboratory, Farmington, Conn.) were administered irinotecan (50 mg/kg) (Selleckchem, Houston, Tex.) via intraperitoneal (IP) injection once daily for the length of the experiment. On day one and every day thereafter for 10 days, mice were also administered streptomycin (5 mg/ml) (Sigma-Aldrich, St. Louis, Mo.) ad libidum via their drinking water in order to kill proteobacteria in the mouse GI tract.
On day two, 0.1 ml of engineered bacteria in PBS at a concentration of 10^10 colony forming units per mL were administered to the mice once via oral gavage.
On days 3, 7, 8, 9, and 10, the presence of the bacteria in the mouse GI tract was confirmed by collecting fecal samples from the mice, and analyzing the fecal samples for the presence of engineered bacteria. The fecal samples were homogenized in PBS, and inoculated onto agar plates containing streptomycin (500 μg/ml). These agar plates inhibited the growth of other bacteria, and only allowed the engineered bacteria to grow. Colonies were quantified and tallied to determine the amount of bacteria that were alive in the mouse GI tract.
Diarrhea indicated whether the xenobiotic metabolism of the irinotecan caused GI toxicity.

`CCc1c2c(nc3ccc(OC(=O)N4CCC(N5CCCCC5)CC4)cc13)-c1cc3c(c(=O)n1C2)COC(=O)[C@]3(O)CC` [Irinotecan, irinotecan] was tested. Which “Mice with diarrhea/total mice in test group” value (streptomycin in drinking water, bacteria once via oral gavage on day two, observed days 6 through 10) did it give?
Its value is 9/10.

And the “GI toxicity / diarrhea from irinotecan, in words” value (with or without engineered bacteria)?
The value was “Nine of the ten mice that did not receive engineered bacteria experienced GI toxicity”.
